Activity calls are given as the source filed them. The rule behind the calls is not given here.
Legend:
NCI-H460 [1] = assay: Induction of autophagy in human NCI-H460 cells assessed as reduction in intracellular AKT protein expression; assay type: functional, cell-based
NCI-H460 [2] = assay: Induction of autophagy in human NCI-H460 cells assessed as reduction in intracellular mTOR protein expression; assay type: functional, cell-based
[3] = target: Cyclin-dependent kinase 4 (Homo sapiens, UniProt P11802); assay: Binding affinity to CDK4 in human NCI-H460 cells assessed as increase in thermal stabilization at 38 to 62 degreeC at 1 uM pretreated for 6 hrs followed by heat exposure for 3 mins and subsequently incubated at room temperature for 3 mins by CETSA; assay type: cell-based; details: time 366.0 min
Cyclin-dependent kinase 4, sequence (P11802 whole entry): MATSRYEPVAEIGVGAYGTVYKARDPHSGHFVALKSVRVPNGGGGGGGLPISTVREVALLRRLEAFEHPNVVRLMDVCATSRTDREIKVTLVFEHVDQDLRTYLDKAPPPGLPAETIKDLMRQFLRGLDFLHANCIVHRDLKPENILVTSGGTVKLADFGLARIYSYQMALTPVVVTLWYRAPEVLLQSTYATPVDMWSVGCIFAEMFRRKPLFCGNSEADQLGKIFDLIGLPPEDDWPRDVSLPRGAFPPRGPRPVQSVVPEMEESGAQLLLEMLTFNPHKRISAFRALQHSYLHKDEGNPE

NCI-H460 [4] = assay: Antiproliferative activity against human NCI-H460 cells assessed as decrease in c-myc expression at 2 to 8 uM treated for 24 hrs by immunofluorescence analysis; assay type: functional, cell-based; details: dose 2-8 µM
NCI-H460 [5] = assay: Induction of apoptosis in human NCI-H460 cells assessed as necrotic cells at 2 uM incubated for 48 hrs by Annexin V-PE/7-AAD staining based flow cytometric analysis (reference value: 0.79 %); assay type: functional
NCI-H460 [6] = assay: Induction of apoptosis in human NCI-H460 cells assessed as early apoptotic cells at 4 uM incubated for 48 hrs by Annexin V-PE/7-AAD staining based flow cytometric analysis (reference value: 3.58 %); assay type: functional
NCI-H460 [7] = assay: Induction of apoptosis in human NCI-H460 cells assessed as late apoptotic cells at 4 uM incubated for 48 hrs by Annexin V-PE/7-AAD staining based flow cytometric analysis (reference value: 3.76 %); assay type: functional
NCI-H460 [8] = assay: Induction of apoptosis in human NCI-H460 cells assessed as necrotic cells at 4 uM incubated for 48 hrs by Annexin V-PE/7-AAD staining based flow cytometric analysis (reference value: 0.79 %); assay type: functional
NCI-H460 [9] = assay: Induction of cell cycle arrest in human NCI-H460 cells assessed as accumulation of cells at S phase at 2 uM incubated for 48 hrs by PI staining based flow cytometric analysis (reference value: 33.3 %); assay type: functional
NCI-H460 [10] = assay: Induction of cell cycle arrest in human NCI-H460 cells assessed as accumulation of cells at S phase at 4 uM incubated for 48 hrs by PI staining based flow cytometric analysis (reference value: 33.3 %); assay type: functional
NCI-H460 [11] = assay: Induction of cell cycle arrest in human NCI-H460 cells assessed as accumulation of cells at G2 phase at 4 uM incubated for 48 hrs by PI staining based flow cytometric analysis (reference value: 11.0 %); assay type: functional
NCI-H460 [12] = assay: Induction of cell cycle arrest in human NCI-H460 cells assessed as accumulation of cells at S phase at 8 uM incubated for 48 hrs by PI staining based flow cytometric analysis (reference value: 33.3 %); assay type: functional
NCI-H460 [13] = assay: Induction of autophagy in human NCI-H460 cells assessed as decrease in P62 expression at 2 to 8 uM incubated for 48 hrs by Western blotting analysis; assay type: functional, cell-based; details: dose 2-8 µM
NCI-H460 [14] = assay: Induction of autophagy in human NCI-H460 cells assessed as reduction in intracellular PI3K protein expression; assay type: functional, cell-based
NCI-H460 [15] = assay: Induction of autophagy in human NCI-H460 cells assessed as increase in autophagic vesicles at 4 uM incubated for 24 hrs by transmission electron microscopic analysis; assay type: functional, cell-based
NCI-H460 [16] = assay: Induction of autophagy in human NCI-H460 cells assessed as production of autophagic vesicles at 4 uM incubated for 24 hrs by transmission electron microscopic analysis; assay type: functional, cell-based
[17] = AUC (0 to t) in male Sprague-Dawley rat at 5 mg/kg, iv measured up to 24 hrs by LC-MS/MS analysis; assay type: ADME, organism-based; details: in vivo
[18] = Half life in male Sprague-Dawley rat at 5 mg/kg, iv measured up to 24 hrs by LC-MS/MS analysis; assay type: ADME, organism-based; details: in vivo
[19] = Apparent volume of distribution in male Sprague-Dawley rat at 5 mg/kg, iv measured up to 24 hrs by LC-MS/MS analysis; assay type: ADME, organism-based; details: in vivo, read-out: Vz
NCI-H460 [20] = assay: Antitumor activity against human NCI-H460 cells xenografted in female BALB/c nude mouse assessed as tumor growth inhibition at 25 mg/kg, ip administered for 21 consecutive days relative to control; assay type: functional; details: NCI-H460, 504 h, time 21 day, read-out: TGI
NCI-H460 [21] = assay: Antitumor activity against human NCI-H460 cells xenografted in female BALB/c nude mouse assessed as decrease in Ki67-positive cells at 50 mg/kg, ip administered for 21 consecutive days by immunohistochemical analysis; assay type: functional, organism-based; details: time 21.0 day
NCI-H460 [22] = assay: Antitumor activity against human NCI-H460 cells xenografted in female BALB/c nude mouse at 25 mg/kg, ip administered for 21 consecutive days; assay type: functional, organism-based; details: time 21.0 day
NCI-H460 [23] = assay: Antitumor activity against human NCI-H460 cells xenografted in female BALB/c nude mouse assessed as suppression of tumor volume at 50 mg/kg, ip administered for 21 consecutive days; assay type: functional, organism-based; details: time 21.0 day
[24] = Toxicity in mouse assessed as histological change in spleen at 400 mg/kg, ip measured for 21 days by H and E staining based analysis; assay type: organism-based; details: in vivo, 504 h, time 21 day
[25] = Toxicity in mouse assessed as histological change in kidney at 400 mg/kg, ip measured for 21 days by H and E staining based analysis; assay type: organism-based; details: in vivo, 504 h, time 21 day
A549 = assay: cells; details: Homo sapiens, A549, 48 h
Description: Antitumor activity against human A549 cells assessed as inhibition of cell viability incubated for 48 hrs by MTT assay

NCI-H1299 = assay: cells; details: Homo sapiens, NCI-H1299, 48 h
Description: Antitumor activity against human NCI-H1299 cells assessed as inhibition of cell viability incubated for 48 hrs by MTT assay

NCI-H460 [26] = assay: cells; details: Homo sapiens, NCI-H460, 48 h
Description: Antitumor activity against human NCI-H460 cells assessed as inhibition of cell viability incubated for 48 hrs by MTT assay

Structure (SMILES): COc1cc(-c2nc3ccc(F)cc3c(=O)[nH]2)cc(OC)c1OCC(=O)N1CCN(c2ccc(Nc3ncc4cc(C(=O)N(C)C)n(C5CCCC5)c4n3)nc2)CC1
- Activity (NCI-H460 [1]): Dose-dependent-effect
- Activity (NCI-H460 [2]): Dose-dependent-effect
- Activity [3]: Active
- Activity (NCI-H460 [4]): Active
- Activity (NCI-H460 [5]): 1.6%
- Activity (NCI-H460 [6]): 8.81%
- Activity (NCI-H460 [7]): 6.56%
- Activity (NCI-H460 [8]): 1.06%
- Activity (NCI-H460 [9]): 27%
- Activity (NCI-H460 [10]): 18.8%
- Activity (NCI-H460 [11]): 7.15%
- Activity (NCI-H460 [12]): 15.8%
- Activity (NCI-H460 [13]): Active
- Activity (NCI-H460 [14]): Dose-dependent-effect
- Activity (NCI-H460 [15]): Active
- Activity (NCI-H460 [16]): Active
- AUC(0-t) at 24 h [17]: 3780 ng·h/mL
- half-life [18]: 445 min
- Vd [19]: 14.1 L/kg
- inhibition in vivo at 25 mg/kg (NCI-H460 [20]): 67.8%
- Activity (NCI-H460 [21]): Active
- Activity (NCI-H460 [22]): Active
- Activity (NCI-H460 [23]): Active
- Activity [24]: Non-toxic
- Activity [25]: Non-toxic
- IC50 (A549): 4.59 µM
- IC50 (NCI-H1299): 4.01 µM
- IC50 (NCI-H460 [26]): 2210 nM
